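Growth conditions: 96-well plates. Treatment: test compound, 48 hours, 5 concentrations. Analysis: linear interpolation between bracketing concentrations; unreached endpoints set to highest concentration. At the TGI there is no net growth.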
Key:
Test in all cases: inhibition of tumour cell growth, NCI panel, 48 h
[1] = test system: SF-295 CNS
[2] = test system: RXF 393 renal
[3] = test system: M14 melanoma
[4] = test system: MDA-N
[5] = test system: K-562 leukemia
[6] = test system: OVCAR-3 ovarian
[7] = test system: OVCAR-8 ovarian
[8] = test system: UACC-257 melanoma
[9] = test system: NCI-H460 lung
[10] = test system: SW-620 colon
[11] = test system: NCI/ADR-RES ovarian
[12] = test system: A498 renal
[13] = test system: RPMI-8226 leukemia
[14] = test system: SK-MEL-2 melanoma
[15] = test system: DU-145 prostate
[16] = test system: HCC-2998 colon
[17] = test system: ACHN renal
[18] = test system: 786-0 renal
[19] = test system: TK-10 renal
[20] = test system: U251 CNS
[21] = test system: OVCAR-4 ovarian
[22] = test system: NCI-H23 lung
[23] = test system: CAKI-1 renal
[24] = test system: UO-31 renal
[25] = test system: SNB-75 CNS
[26] = test system: T-47D breast
[27] = test system: HOP-62 NSCLC
[28] = test system: CCRF-CEM leukemia
[29] = test system: HCT-116 colon
[30] = test system: MOLT-4 leukemia
[31] = test system: OVCAR-5 ovarian
[32] = test system: SNB-19 CNS
[33] = test system: EKVX NSCLC
[34] = test system: UACC-62 melanoma
[35] = test system: IGROV1 ovarian
[36] = test system: PC-3 prostate
[37] = test system: HOP-92 NSCLC
[38] = test system: BT-549 breast
[39] = test system: SN12C renal
[40] = test system: MDA-MB-231 breast
[41] = test system: MALME-3M melanoma
[42] = test system: LOX IMVI melanoma
[43] = test system: SR leukemia
[44] = test system: SK-MEL-5 melanoma
[45] = test system: HCT-15 colon
[46] = test system: SF-268 CNS
[47] = test system: KM12 colon
[48] = test system: SK-MEL-28 melanoma
[49] = test system: HS 578T breast
[50] = test system: MDA-MB-435
[51] = test system: SF-539 CNS
[52] = test system: COLO 205 colon
[53] = test system: HT29 colon
[54] = test system: HL-60(TB) leukemia
[55] = test system: MCF7 breast
[56] = test system: NCI-H226 lung
[57] = test system: SK-OV-3 ovarian
[58] = test system: A549 NSCLC
[59] = test system: NCI-H522 lung

With `O=C1c2ccccc2C(=O)c2c1ccc1nc3c(nc21)-c1c2ccccc2cc2cccc-3c12` as the compound, how does the TGI [1] read?
The TGI was over 100 µM.

What about the TGI [2] of the same compound?
The TGI was over 100 µM.

And the TGI [3]?
The TGI was over 100 µM.

What about the TGI [4] of the same compound?
Its TGI is over 100 µM.

And the TGI [5]?
Its TGI is over 100 µM.

And the TGI [6]?
The TGI was over 100 µM.

What about the TGI [7] of the same compound?
Its TGI is over 100 µM.

And the TGI [8]?
Its TGI is over 100 µM.

What about the TGI [9] of the same compound?
The TGI was over 100 µM.

What about the TGI [10] of the same compound?
Its TGI is over 100 µM.

And the TGI [11]?
Its TGI is over 100 µM.

What about the TGI [12] of the same compound?
The TGI was over 82.5 µM.

And the TGI [13]?
Its TGI is over 100 µM.

What about the TGI [14] of the same compound?
The TGI was over 100 µM.

And the TGI [15]?
Its TGI is over 81.7 µM.

What about the TGI [16] of the same compound?
Its TGI is over 100 µM.

And the TGI [17]?
Its TGI is over 57.6 µM.

And the TGI [18]?
The TGI was over 100 µM.

What about the TGI [19] of the same compound?
Its TGI is over 100 µM.

What about the TGI [20] of the same compound?
The TGI was over 100 µM.

What about the TGI [21] of the same compound?
The TGI was over 100 µM.

What about the TGI [22] of the same compound?
Its TGI is over 100 µM.

And the TGI [23]?
The TGI was over 100 µM.

What about the TGI [24] of the same compound?
The TGI was over 100 µM.

And the TGI [25]?
The TGI was over 31.6 µM.

And the TGI [26]?
Its TGI is over 84.2 µM.

And the TGI [27]?
The TGI was over 91.6 µM.

What about the TGI [28] of the same compound?
Its TGI is over 100 µM.

And the TGI [29]?
The TGI was over 100 µM.

What about the TGI [30] of the same compound?
The TGI was over 100 µM.

And the TGI [31]?
Its TGI is over 100 µM.

What about the TGI [32] of the same compound?
Its TGI is over 100 µM.

And the TGI [33]?
The TGI was over 100 µM.

And the TGI [34]?
The TGI was over 86.2 µM.

What about the TGI [35] of the same compound?
Its TGI is over 57.4 µM.

What about the TGI [36] of the same compound?
The TGI was over 100 µM.

What about the TGI [37] of the same compound?
The TGI was over 100 µM.

And the TGI [38]?
Its TGI is over 100 µM.

And the TGI [39]?
The TGI was over 100 µM.

And the TGI [40]?
The TGI was over 100 µM.

And the TGI [41]?
The TGI was over 100 µM.

What about the TGI [42] of the same compound?
Its TGI is over 100 µM.

What about the TGI [43] of the same compound?
Its TGI is over 100 µM.

What about the TGI [44] of the same compound?
Its TGI is over 100 µM.

And the TGI [45]?
Its TGI is over 100 µM.

What about the TGI [46] of the same compound?
The TGI was over 100 µM.

And the TGI [47]?
Its TGI is over 94.9 µM.

And the TGI [48]?
Its TGI is over 100 µM.

And the TGI [49]?
Its TGI is over 52.4 µM.

What about the TGI [50] of the same compound?
The TGI was 38.6 µM.

What about the TGI [51] of the same compound?
The TGI was over 100 µM.

And the TGI [52]?
Its TGI is over 100 µM.

What about the TGI [53] of the same compound?
Its TGI is over 100 µM.

And the TGI [54]?
The TGI was over 100 µM.

And the TGI [55]?
Its TGI is over 91.5 µM.

And the TGI [56]?
The TGI was over 100 µM.

And the TGI [57]?
Its TGI is over 100 µM.

And the TGI [58]?
Its TGI is over 100 µM.

And the TGI [59]?
The TGI was over 100 µM.

With `C=CC(C)(O)/C=C/C=C(\C)C(CC1OC1(C)C)OC(=O)/C(C)=C\C` (stereo unspecified) as the compound, how does the TGI [1] read?
The TGI was over 100 µM.

What about the TGI [2] of the same compound?
The TGI was over 100 µM.

And the TGI [3]?
The TGI was over 100 µM.

What about the TGI [4] of the same compound?
Its TGI is over 100 µM.

What about the TGI [5] of the same compound?
The TGI was over 100 µM.

What about the TGI [6] of the same compound?
Its TGI is over 100 µM.

And the TGI [7]?
The TGI was over 100 µM.

And the TGI [8]?
Its TGI is over 100 µM.

What about the TGI [9] of the same compound?
The TGI was over 100 µM.

And the TGI [10]?
The TGI was over 100 µM.

What about the TGI [11] of the same compound?
Its TGI is over 100 µM.

What about the TGI [12] of the same compound?
Its TGI is over 100 µM.

What about the TGI [13] of the same compound?
The TGI was over 100 µM.

And the TGI [14]?
Its TGI is over 100 µM.

What about the TGI [15] of the same compound?
Its TGI is over 100 µM.

And the TGI [16]?
The TGI was over 100 µM.

And the TGI [17]?
The TGI was over 100 µM.

And the TGI [18]?
The TGI was over 100 µM.

What about the TGI [19] of the same compound?
The TGI was over 100 µM.

And the TGI [20]?
Its TGI is over 100 µM.

What about the TGI [21] of the same compound?
The TGI was over 100 µM.

And the TGI [22]?
The TGI was over 100 µM.

And the TGI [23]?
Its TGI is over 100 µM.

What about the TGI [24] of the same compound?
The TGI was over 100 µM.

What about the TGI [25] of the same compound?
Its TGI is over 100 µM.

And the TGI [26]?
The TGI was over 100 µM.

And the TGI [27]?
Its TGI is over 100 µM.

And the TGI [29]?
The TGI was over 100 µM.

And the TGI [30]?
The TGI was over 100 µM.

And the TGI [31]?
Its TGI is over 100 µM.

And the TGI [32]?
Its TGI is over 100 µM.

And the TGI [33]?
Its TGI is over 100 µM.

What about the TGI [34] of the same compound?
The TGI was over 100 µM.

And the TGI [35]?
The TGI was over 100 µM.

What about the TGI [36] of the same compound?
The TGI was over 100 µM.

What about the TGI [37] of the same compound?
Its TGI is over 100 µM.

And the TGI [38]?
Its TGI is over 100 µM.

And the TGI [39]?
Its TGI is over 100 µM.

And the TGI [40]?
The TGI was over 100 µM.

What about the TGI [41] of the same compound?
The TGI was over 100 µM.

What about the TGI [42] of the same compound?
The TGI was over 100 µM.

And the TGI [43]?
The TGI was over 100 µM.

And the TGI [44]?
Its TGI is over 100 µM.

What about the TGI [45] of the same compound?
Its TGI is over 100 µM.

What about the TGI [46] of the same compound?
The TGI was over 100 µM.

And the TGI [47]?
The TGI was over 100 µM.

What about the TGI [48] of the same compound?
Its TGI is over 100 µM.

And the TGI [49]?
The TGI was over 100 µM.

What about the TGI [50] of the same compound?
Its TGI is over 100 µM.

And the TGI [51]?
Its TGI is over 100 µM.

And the TGI [52]?
The TGI was over 100 µM.

What about the TGI [53] of the same compound?
The TGI was over 100 µM.

And the TGI [54]?
Its TGI is over 100 µM.

What about the TGI [55] of the same compound?
Its TGI is over 100 µM.

And the TGI [57]?
Its TGI is over 100 µM.

What about the TGI [58] of the same compound?
Its TGI is over 100 µM.

And the TGI [59]?
The TGI was over 100 µM.

— PubChem BioAssay (NCI)
